Values of other authors, collected in patent EP2343054A1, “Pellets and microparticles of pravastatin sodium and a process of making them” (LEK Pharmaceuticals d.d., priority 2010, dated 2011).

Legend:
[1] = pH 3 or less, as found in the stomach
[2] = pH of 7.0

For `CC[C@H](C)C(=O)O[C@H]1C[C@H](O)C=C2C=C[C@H](C)[C@H](CC[C@@H](O)C[C@@H](O)CC(=O)O)[C@H]21` [Pravastatin sodium], the “stability at low pH” value [1] is listed as “very unstable” and the “partition coefficient (octanol/water)” value [2] is listed as 0.23.
For `CC[C@H](C)C(=O)O[C@H]1C[C@H](O)C=C2C=C[C@H](C)[C@H](CC[C@@H](O)C[C@@H](O)CC(=O)O)[C@H]21` [pravastatin, (+)-(3R, 5R) -3,5-dihydroxy-7-[(1 S, 2S, 6S, 8S, 8aR)-6-hydroxy-2-methyl-8-[(S)-2-methylbutyryloxy]-1,2,6,7,8,8a-hexahydro-1-naphthyl] heptanoate], the average oral absorption is given as 34% and the absolute bioavailability (oral) is given as 17%.
